ChEMBL document CHEMBL1201862, “PubChem BioAssay data set” (2004)
Active and inactive are the calls of the source.

Columns and labels:
Streptococcus = assay: Luminescence Microorganism-Based Dose Response Follow up to Identify Compounds Cytotoxic to Streptococcus. [Related pubchem assays: 1677 (Project Summary), 1915, 1914, 1902 (Retest at Dose), 1900 (Counter Screen), 1662 (Primary HTS)]; format: functional, organism-based
[1] = target: Photoreceptor-specific nuclear receptor (Homo sapiens, UniProt Q9Y5X4); format: functional;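 note: potency for compounds that break the NR2E3 corepressor complex and count as activators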
Chain of Photoreceptor-specific nuclear receptor (Q9Y5X4 whole entry): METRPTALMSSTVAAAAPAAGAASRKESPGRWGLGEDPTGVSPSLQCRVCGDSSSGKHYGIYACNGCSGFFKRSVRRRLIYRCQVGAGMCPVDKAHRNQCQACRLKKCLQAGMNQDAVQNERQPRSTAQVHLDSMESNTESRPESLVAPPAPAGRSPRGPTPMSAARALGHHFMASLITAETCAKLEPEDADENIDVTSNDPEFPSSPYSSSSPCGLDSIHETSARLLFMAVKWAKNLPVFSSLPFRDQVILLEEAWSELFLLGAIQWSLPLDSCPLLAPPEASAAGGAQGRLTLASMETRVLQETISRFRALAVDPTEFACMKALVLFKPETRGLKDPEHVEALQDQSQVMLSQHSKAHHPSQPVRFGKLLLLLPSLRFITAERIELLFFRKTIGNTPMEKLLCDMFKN

[2] = target: Peroxisome proliferator-activated receptor gamma/Nuclear receptor corepressor 2 (Homo sapiens, UniProt P37231+Q9Y618); format: functional
[3] = Luminescent dose response cell-based high throughput screening assay for inhibitors of the Janus kinase 2 mutant JAK2V617F. [Related pubchem assays: 1446 (Primary screen.), 1521 (Confirmation assay.), 1486 (Counter screen.)]; format: functional
HEK293 [4] = assay: NOD1 signaling inhibitors, primary screen, cell-based, luminescence, uHTS (AID 1578); format: functional; conditions: Homo sapiens
BJ [5] = assay: cytotoxicity toward BJ-TERT fibroblasts, dose response, cell-based, RAS-independent, luminescence (AID 1933); format: functional; conditions: Homo sapiens
HEK293 [6] = assay: cells; format: functional, cell-based; conditions: Homo sapiens
[7] = target: Transitional endoplasmic reticulum ATPase (Homo sapiens, UniProt P55072, C522A); assay: C522A mutant p97 ATPase inhibitors, dose response, counter-screen for p97 inhibitor project, biochemical, luminescence (AID 1544)
Chain of Transitional endoplasmic reticulum ATPase (Homo sapiens, UniProt P55072, C522A) (P55072 2-806 C522A limits assumed): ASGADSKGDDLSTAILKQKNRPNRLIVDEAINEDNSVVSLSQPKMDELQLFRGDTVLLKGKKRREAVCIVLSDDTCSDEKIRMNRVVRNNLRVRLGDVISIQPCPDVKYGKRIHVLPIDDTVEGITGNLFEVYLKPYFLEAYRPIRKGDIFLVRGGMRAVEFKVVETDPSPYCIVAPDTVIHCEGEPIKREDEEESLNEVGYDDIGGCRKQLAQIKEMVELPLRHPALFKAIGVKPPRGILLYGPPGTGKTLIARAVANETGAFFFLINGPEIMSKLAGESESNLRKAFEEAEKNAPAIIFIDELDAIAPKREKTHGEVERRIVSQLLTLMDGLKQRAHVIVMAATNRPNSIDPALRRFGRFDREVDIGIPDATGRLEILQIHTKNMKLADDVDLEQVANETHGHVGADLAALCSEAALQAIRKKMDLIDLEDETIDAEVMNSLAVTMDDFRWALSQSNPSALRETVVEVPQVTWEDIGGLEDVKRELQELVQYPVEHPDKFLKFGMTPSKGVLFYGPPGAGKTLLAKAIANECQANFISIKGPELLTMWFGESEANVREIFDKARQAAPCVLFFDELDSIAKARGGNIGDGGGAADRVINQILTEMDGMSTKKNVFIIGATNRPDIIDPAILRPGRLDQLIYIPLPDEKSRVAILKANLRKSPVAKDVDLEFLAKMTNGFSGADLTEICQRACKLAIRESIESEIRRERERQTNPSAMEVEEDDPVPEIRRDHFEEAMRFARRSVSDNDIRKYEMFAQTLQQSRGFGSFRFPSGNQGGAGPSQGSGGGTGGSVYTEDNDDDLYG

BJ [8] = assay: cells; format: functional, cell-based; conditions: Homo sapiens
HEK293 [9] = assay: cells; format: functional, cell-based; conditions: Homo sapiens; remark: listed apart in the source
HEK293 [10] = assay: NOD2 signaling inhibitors in MDP-stimulated cells, cell-based, uHTS, luminescence (AID 2001); format: functional; conditions: Homo sapiens
BJ [11] = assay: cytotoxicity toward BJ-TERT-LT-ST fibroblasts, dose response, cell-based, RAS-independent, luminescence (AID 1935); format: functional; conditions: Homo sapiens;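 note: BJ fibroblasts immortalized with TERT plus LT and ST oncogenes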
[12] = target: Transitional endoplasmic reticulum ATPase (Homo sapiens, UniProt P55072); assay: p97 ATPase inhibitors, dose response, biochemical (AID 1534)
Chain of Transitional endoplasmic reticulum ATPase (Homo sapiens, UniProt P55072) (P55072 whole entry): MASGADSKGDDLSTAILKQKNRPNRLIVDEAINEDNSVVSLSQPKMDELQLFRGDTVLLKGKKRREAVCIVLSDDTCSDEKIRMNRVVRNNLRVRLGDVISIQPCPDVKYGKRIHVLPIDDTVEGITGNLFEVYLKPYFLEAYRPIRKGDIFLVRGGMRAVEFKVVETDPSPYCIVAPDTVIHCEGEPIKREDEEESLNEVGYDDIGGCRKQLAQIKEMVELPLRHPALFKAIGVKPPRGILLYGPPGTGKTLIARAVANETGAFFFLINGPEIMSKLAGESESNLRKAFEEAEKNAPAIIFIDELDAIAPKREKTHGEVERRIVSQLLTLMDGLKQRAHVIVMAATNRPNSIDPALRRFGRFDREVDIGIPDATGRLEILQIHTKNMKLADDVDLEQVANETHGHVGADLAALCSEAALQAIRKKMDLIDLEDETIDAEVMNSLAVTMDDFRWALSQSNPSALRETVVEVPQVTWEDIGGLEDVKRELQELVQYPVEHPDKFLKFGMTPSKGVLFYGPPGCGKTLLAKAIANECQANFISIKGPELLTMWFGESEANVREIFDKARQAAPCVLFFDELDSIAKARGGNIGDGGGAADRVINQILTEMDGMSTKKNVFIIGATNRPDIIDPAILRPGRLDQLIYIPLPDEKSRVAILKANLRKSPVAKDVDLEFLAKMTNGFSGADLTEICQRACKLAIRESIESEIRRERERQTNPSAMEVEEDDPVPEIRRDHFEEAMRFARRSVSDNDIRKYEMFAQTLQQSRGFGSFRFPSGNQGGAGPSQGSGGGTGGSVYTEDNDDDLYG

[13] = cytotoxicity toward DRD oncogenic fibroblasts, dose response, cell-based, non-viral oncogenic, luminescence (AID 1934); format: functional; conditions: Homo sapiens
Tumor necrosis factor = Tumor necrosis factor (Homo sapiens, UniProt P01375); assay: TNFa-triggered NF-kB activation inhibitors, SAR follow-up, cell-based, revised (AID 2337); format: functional
Chain of Tumor necrosis factor (P01375 whole entry, the tested form may be a part): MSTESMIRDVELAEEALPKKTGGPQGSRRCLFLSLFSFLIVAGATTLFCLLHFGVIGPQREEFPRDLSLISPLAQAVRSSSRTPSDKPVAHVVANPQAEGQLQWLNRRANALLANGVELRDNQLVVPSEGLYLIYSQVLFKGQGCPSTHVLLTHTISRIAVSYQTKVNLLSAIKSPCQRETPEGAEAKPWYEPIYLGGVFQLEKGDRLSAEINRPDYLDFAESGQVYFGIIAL

[14] = target: Nucleotide-binding oligomerization domain-containing protein 1 (Homo sapiens, UniProt Q9Y239); assay: NOD1 signaling inhibitors, SAR follow-up, revised (AID 2333); format: functional
Chain of Nucleotide-binding oligomerization domain-containing protein 1 (Q9Y239 whole entry, the tested form may be a part): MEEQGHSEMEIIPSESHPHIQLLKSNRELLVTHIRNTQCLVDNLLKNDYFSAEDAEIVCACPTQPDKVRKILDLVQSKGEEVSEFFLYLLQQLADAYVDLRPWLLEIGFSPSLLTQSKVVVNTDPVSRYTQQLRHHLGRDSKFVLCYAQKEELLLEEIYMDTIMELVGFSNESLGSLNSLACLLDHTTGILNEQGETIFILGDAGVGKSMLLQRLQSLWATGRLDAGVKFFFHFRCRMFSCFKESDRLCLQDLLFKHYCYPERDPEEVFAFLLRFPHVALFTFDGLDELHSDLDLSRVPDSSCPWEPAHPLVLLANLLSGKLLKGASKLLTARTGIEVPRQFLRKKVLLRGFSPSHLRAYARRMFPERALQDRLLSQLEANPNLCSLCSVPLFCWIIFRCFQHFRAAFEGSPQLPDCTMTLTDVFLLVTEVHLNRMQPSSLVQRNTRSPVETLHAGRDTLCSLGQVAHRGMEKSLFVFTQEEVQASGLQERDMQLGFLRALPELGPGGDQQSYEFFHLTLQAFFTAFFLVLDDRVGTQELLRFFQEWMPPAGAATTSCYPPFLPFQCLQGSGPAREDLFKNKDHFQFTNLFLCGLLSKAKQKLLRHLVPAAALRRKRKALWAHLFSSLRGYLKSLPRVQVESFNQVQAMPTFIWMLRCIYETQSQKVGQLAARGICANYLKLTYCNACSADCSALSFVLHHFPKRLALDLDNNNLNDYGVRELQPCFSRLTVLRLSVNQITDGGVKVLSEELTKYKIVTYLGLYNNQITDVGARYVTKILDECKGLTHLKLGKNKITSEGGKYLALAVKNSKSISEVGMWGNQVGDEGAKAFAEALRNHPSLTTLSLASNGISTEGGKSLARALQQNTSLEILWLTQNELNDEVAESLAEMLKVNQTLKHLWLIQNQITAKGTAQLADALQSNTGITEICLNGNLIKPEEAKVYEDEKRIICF

[15] = target: T1, Heat shock factor protein 1 (Mus musculus, UniProt P38532); assay: HSF1 potentiators in luciferase reporter cells, confirmation, cell-based, NIH3T3, luminescence, dose retest (AID 435004); format: functional;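 note: stress induced by proteasome inhibitor MG132 added 30 min after compound; luciferase reporter driven by HSF1 response element in NIH3T3 cells; actives raise luminescence as potentiators of the MG132 stress response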
T1 sequence (P38532 whole entry): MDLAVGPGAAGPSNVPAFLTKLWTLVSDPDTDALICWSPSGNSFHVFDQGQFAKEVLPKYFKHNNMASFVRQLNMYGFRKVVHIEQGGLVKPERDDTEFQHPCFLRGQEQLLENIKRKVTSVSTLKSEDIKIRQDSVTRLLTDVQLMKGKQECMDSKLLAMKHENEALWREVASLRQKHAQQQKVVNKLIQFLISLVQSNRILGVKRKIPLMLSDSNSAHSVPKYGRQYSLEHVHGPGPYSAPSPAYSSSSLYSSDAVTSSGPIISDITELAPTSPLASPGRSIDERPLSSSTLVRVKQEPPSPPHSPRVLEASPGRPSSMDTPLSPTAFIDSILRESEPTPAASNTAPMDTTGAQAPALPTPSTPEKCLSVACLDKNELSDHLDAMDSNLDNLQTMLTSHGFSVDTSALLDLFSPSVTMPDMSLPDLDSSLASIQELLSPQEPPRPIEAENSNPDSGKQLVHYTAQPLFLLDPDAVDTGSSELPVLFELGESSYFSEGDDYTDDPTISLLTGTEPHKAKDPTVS

[16] = target: T2, Replicative DNA helicase DnaB (Mycobacterium tuberculosis, UniProt P9WMR3); assay: DnaB intein splicing inhibitors, dose response, biochemical, cell-free fluorescence (AID 449749); format: functional
T2 sequence (P9WMR3 whole entry): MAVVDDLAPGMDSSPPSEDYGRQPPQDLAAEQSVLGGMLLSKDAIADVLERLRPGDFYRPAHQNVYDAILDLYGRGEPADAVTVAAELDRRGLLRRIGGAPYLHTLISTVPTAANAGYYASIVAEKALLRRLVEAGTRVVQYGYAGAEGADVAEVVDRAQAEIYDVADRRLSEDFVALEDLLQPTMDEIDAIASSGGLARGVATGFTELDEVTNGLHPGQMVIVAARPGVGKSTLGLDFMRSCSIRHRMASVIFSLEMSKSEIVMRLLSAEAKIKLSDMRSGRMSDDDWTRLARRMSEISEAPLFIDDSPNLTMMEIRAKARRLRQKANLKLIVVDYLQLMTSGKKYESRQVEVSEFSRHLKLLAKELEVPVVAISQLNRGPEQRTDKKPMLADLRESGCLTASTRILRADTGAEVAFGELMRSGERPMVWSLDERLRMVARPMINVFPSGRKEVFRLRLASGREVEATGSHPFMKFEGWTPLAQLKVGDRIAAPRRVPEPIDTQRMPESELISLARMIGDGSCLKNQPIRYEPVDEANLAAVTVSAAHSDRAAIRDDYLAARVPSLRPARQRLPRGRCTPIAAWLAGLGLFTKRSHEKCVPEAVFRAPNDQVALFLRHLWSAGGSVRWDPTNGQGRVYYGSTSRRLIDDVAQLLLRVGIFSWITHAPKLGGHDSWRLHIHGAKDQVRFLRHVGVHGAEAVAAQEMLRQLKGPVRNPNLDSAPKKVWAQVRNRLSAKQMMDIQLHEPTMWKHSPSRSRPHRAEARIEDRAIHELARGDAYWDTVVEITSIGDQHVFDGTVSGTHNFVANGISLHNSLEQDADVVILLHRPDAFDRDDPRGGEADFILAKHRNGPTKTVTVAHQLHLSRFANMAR

BJ [17] = assay: cytotoxicity toward Ras-transformed BJeLR fibroblasts, dose response, cell-based, alamar blue fluorescence, cherrypicked samples (AID 2631); format: functional; conditions: Homo sapiens;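 note: confirmatory dose-response assay in RAS-dependent BJ fibroblasts engineered with TERT, LT and ST, with cytotoxicity read by fluorescence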
Protein RecA = target: T3, Protein RecA (Mycobacterium tuberculosis, UniProt P9WHJ3); assay: Fluorescence Cell-Free Homogeneous Dose Retest to Identify Inhibitors of RecA-Intein Splicing Activity. [Related pubchem assays (depositor defined):AID2097, AID2223, AID489010, AID492950]; format: functional
T3 sequence (P9WHJ3 whole entry): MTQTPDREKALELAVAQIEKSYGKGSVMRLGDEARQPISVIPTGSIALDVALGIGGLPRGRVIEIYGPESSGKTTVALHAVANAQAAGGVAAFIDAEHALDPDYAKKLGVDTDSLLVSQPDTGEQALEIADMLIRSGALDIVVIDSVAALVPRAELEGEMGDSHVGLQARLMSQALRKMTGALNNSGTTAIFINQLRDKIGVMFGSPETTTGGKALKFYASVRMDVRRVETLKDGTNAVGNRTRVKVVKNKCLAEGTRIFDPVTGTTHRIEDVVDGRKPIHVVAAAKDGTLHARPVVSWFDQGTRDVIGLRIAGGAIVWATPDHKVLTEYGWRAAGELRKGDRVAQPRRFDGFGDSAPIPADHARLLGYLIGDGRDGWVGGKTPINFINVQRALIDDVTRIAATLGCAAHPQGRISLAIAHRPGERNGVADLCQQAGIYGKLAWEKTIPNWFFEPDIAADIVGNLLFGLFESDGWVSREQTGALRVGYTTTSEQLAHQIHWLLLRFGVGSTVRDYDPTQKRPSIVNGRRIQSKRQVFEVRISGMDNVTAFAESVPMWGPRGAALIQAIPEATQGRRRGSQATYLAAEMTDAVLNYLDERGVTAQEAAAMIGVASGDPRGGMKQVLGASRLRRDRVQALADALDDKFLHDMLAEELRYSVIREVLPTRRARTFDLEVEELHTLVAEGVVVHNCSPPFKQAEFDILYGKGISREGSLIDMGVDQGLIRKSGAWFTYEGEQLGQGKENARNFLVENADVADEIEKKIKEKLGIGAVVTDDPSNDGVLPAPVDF

Vero = assay: cells; format: functional; conditions: Chlorocebus sabaeus
HEK293 [18] = assay: cells; conditions: Homo sapiens

COc1cccc(C(=O)n2c3ccccc3c3ccccc32)c1
EC50 (Streptococcus): > 500 µM (not active)

Cc1cc(-c2ccc(Cl)cc2)c(C#N)c(N)n1
IC50 [1]: 33 µM (not active) | IC50 [2]: 3.26 µM (active)

Nc1nc(CCl)nc(Nc2ccc3ccccc3c2)n1
IC50 [3]: 0.476 µM (active) | EC50 (HEK293 [4]): 11.1 µM (active) | EC50 (BJ [5]): < 0.12 µM (active) | IC50 (HEK293 [6]): 5.4 µM (active) | IC50 [7]: > 50 µM (not active) | EC50 (BJ [8]): 0.717 µM (inconclusive) | IC50 (HEK293 [9]): > 20 µM (inactive) | IC50 (HEK293 [10]): 7.7 µM (active) | EC50 (BJ [11]): 8.32 µM (inconclusive) | IC50 [12]: > 50 µM (not active) | EC50 [13]: 0.289 µM (active) | IC50 (Tumor necrosis factor): 11.1 µM (active) | IC50 [14]: 3.43 µM (active) | EC50 [15]: > 260 µM (inactive) | AC50 [16]: 15.4 µM (active) | EC50 (BJ [17]): 4.62 µM (active) | EC50 (Protein RecA): 19.4 µM (active) | CC50 (Vero): 1.24 µM (active) | IC50 (HEK293 [18]): > 20 µM (inactive)
